Molecules are shown by their SMILES. Like-named read-outs stand apart in the source and are kept apart here. Some results are limits rather than exact numbers.

Data set [1] addresses Class I PI3K alpha isoform (Homo sapiens, UniProt P42336). Particulars: PI3K alpha versus PI3K beta, delta and gamma isoforms; cited from earlier work.
For data set [2], the system named is tumor cells bearing mutant PI3K. The conditions noted are these: mutant PI3K over wild type (WT) PI3K cells; cited from earlier work.
Data set [3] concerns human breast xenograft models harboring PIK3CA mutations. Nature of the data set: tumor growth in human breast xenograft models harboring PIK3CA mutations. The class given is in vivo. On the technique in general: A xenograft is tissue or cells of one species grown in another, often human tumour cells in immunodeficient mice.
In data set [4] the test system is PIK3CA-mutant breast cancer cell lines. As to the kind of experiment: proliferation and apoptosis of PIK3CA-mutant breast cancer cell lines. It counts as cell-based. Particulars: nonclinical studies.
Data set [5] concerns PI3K-pathway markers pAKT, pPRAS40, pS6. Nature of the data set: downstream PI3K-pathway markers (pAKT, pPRAS40, pS6).
The test system of a further data set is mutant p110 alpha. As to the kind of experiment: degradation of mutant p110 alpha (nonclinical studies).
The subject of data set [6] is patients with HR+/HER2- breast cancer. Particulars: in combination with fulvestrant; cited from earlier work.
For data set [7] the test system is unchanged. The conditions noted are these: in combination with letrozole; cited from earlier work.

Chain of Class I PI3K alpha isoform (P42336 whole entry, canonical isoform): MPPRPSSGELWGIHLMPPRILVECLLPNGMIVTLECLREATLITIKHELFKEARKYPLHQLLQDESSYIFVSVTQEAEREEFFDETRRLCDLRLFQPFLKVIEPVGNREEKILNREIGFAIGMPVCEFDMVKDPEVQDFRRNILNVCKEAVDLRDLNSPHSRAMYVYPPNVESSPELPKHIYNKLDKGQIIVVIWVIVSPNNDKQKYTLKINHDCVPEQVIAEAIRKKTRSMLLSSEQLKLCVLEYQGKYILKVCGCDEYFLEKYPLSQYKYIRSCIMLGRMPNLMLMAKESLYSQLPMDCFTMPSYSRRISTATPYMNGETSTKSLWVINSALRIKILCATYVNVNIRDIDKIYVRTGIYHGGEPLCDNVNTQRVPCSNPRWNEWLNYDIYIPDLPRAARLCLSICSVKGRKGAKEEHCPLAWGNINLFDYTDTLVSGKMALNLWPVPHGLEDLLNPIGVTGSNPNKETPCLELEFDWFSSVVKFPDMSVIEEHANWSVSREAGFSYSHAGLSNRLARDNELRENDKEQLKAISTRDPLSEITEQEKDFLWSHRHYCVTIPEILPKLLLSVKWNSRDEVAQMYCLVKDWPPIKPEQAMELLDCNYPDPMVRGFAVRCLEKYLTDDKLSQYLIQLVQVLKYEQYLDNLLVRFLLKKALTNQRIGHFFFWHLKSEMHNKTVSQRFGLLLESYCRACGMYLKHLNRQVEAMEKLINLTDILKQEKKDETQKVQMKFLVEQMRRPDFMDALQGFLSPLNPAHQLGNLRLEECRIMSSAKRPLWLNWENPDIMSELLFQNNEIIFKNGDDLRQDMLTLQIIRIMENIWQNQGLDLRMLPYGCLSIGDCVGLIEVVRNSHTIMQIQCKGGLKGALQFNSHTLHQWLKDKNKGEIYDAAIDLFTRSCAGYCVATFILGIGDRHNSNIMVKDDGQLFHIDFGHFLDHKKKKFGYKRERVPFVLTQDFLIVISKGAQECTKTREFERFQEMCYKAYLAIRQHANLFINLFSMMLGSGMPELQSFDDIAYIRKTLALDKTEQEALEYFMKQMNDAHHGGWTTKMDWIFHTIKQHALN
Chain of Class I PI3K alpha isoform (P27986 whole entry partner, canonical isoform): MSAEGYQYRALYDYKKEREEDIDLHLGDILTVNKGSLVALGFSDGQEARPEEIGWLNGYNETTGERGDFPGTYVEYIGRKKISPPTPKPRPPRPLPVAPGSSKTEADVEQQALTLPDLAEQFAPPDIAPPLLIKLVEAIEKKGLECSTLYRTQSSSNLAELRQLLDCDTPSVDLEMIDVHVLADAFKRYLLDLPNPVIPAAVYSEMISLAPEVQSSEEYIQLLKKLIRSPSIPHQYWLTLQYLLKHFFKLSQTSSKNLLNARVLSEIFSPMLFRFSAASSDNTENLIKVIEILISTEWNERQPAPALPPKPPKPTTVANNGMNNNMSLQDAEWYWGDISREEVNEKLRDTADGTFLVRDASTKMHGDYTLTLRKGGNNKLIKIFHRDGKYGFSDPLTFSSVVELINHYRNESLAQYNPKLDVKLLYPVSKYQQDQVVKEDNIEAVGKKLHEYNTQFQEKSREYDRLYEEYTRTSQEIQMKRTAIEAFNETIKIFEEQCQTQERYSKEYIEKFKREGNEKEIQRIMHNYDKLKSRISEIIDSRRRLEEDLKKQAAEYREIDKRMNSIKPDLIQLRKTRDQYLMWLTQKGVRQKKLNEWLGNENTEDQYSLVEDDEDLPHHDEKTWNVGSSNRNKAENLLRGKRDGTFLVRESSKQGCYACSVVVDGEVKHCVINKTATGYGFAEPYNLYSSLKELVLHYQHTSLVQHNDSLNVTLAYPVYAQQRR

`C[C@H](Nc1ccc2c(c1)OCCn1cc(N3C(=O)OC[C@H]3C(F)F)nc1-2)C(N)=O` [GDC-0077, (S)-2-((2-((S)-4-(difluoromethyl)-2-oxooxazolidin-3-yl)-5,6-dihydrobenzo[f]imidazo[1,2-d][1,4]oxazepin-9-yl)amino)propanamide]: in data set [1], the “fold less potent biochemical inhibition for other Class I PI3K isoforms” value was greater than 300 fold. For the same compound, in data set [2], the “potency in mutant PI3K tumor cells over wild type PI3K cells” value is given as “increased potency”. In data set [3], the “tumor growth in xenograft models” value was “inhibits tumor growth”. Besides, in data set [4], the “apoptosis of PIK3CA-mutant breast cancer cell lines” value is given as “induces apoptosis” and the “proliferation of PIK3CA-mutant breast cancer cell lines” value is “inhibits proliferation”. Besides, the “downstream PI3K-pathway markers” value in data set [5] is “reduces downstream PI3K-pathway markers”. For the same compound, the “degradation of mutant p110 alpha” value with mutant p110 alpha is “specifically degrades mutant p110 alpha”.

Turning to `CC(=O)c1c(C)c2cnc(Nc3ccc(N4CCNCC4)cn3)nc2n(C2CCCC2)c1=O` [palbociclib, 6-acetyl-8-cyclopentyl-5-methyl-2-(5-(piperazin-1-yl)pyridin-2-ylamino)pyrido[2,3-d]pyrimidin-7(8H)-one], in data set [6], the “patients requiring 1 dose reduction of palbociclib” value was 34%, the “patients with cycle delays” value was 36% and the “patients with dose holds” value is 54%. Further, in data set [7], the “patients requiring 1 dose reduction of palbociclib” value is listed as 36%, the “patients with cycle delays” value is on record as 68% and the “patients with dose holds” value was 70%.

The record behind these values is patent US20210322426A1, “METHODS OF TREATING CANCER WITH PI3K ALPHA INHIBITORS AND METFORMIN” (Genentech, Inc., priority 2018, published 2021).
